Source: ChEMBL document CHEMBL1649540, “The novel CXCR4 antagonist KRH-3955 is an orally bioavailable and extremely potent inhibitor of human immunodeficiency virus type 1 infection: comparative studies with AMD3100” (Antimicrob Agents Chemother, 2009)
The source made the active and inactive calls. The calls are words filed in the database; no cut-off is given here.

Assays:
[1] = system: Human immunodeficiency virus 1; experiment: Antiviral activity against HIV1 89.6 infected in human PBMC assessed as inhibition of viral p24 antigen production after 7 to 10 days by ELISA; format: functional, organism-based; settings: Human immunodeficiency virus 1, 89.6
[2] = system: Human immunodeficiency virus 1; experiment: Antiviral activity against HIV1 NL4-3 infected in human PBMC assessed as inhibition of viral p24 antigen production after 7 to 10 days by ELISA; format: functional, organism-based; settings: Human immunodeficiency virus 1, NL4-3
[3] = system: Human immunodeficiency virus 1; experiment: Antiviral activity against HIV1 R5 infected in human PBMC assessed as inhibition of viral p24 antigen production after 7 to 10 days by ELISA; format: functional, organism-based; settings: Human immunodeficiency virus 1, R5
[4] = system: Human immunodeficiency virus 1; experiment: Antiviral activity against HIV1 X4 infected in human PBMC assessed as inhibition of viral p24 antigen production after 7 to 10 days by ELISA; format: functional, organism-based; settings: Human immunodeficiency virus 1, X4
[5] = system: Human immunodeficiency virus 1; experiment: Antiviral activity against HIV1 JRCSF infected in human PBMC assessed as inhibition of viral p24 antigen production after 7 to 10 days by ELISA; format: functional; settings: Human immunodeficiency virus 1, JRCSF ISOLATE
[6] = system: Human immunodeficiency virus 1; experiment: Antiviral activity against HIV1 A018H infected in human PBMC assessed as inhibition of viral p24 antigen production after 7 to 10 days by ELISA; format: functional, organism-based; settings: Human immunodeficiency virus 1, A018H
[7] = system: Human immunodeficiency virus 1; experiment: Antiviral activity against HIV1 A018G infected in human PBMC assessed as inhibition of viral p24 antigen production after 7 to 10 days by ELISA; format: functional, organism-based; settings: Human immunodeficiency virus 1, A018G
[8] = system: Human immunodeficiency virus 1; experiment: Antiviral activity against multidrug resistant HIV1 HXB2 infected in HEK293 cells assessed as inhibition of viral replication after 2 days; format: functional, organism-based; settings: Human immunodeficiency virus 1, HXB2, HEK293, 48 h
[9] = system: Human immunodeficiency virus 1; experiment: Antiviral activity against NNRTI-resistant HIV1 HXB2 infected in HEK293 cells assessed as inhibition of viral replication after 2 days; format: functional, organism-based; settings: Human immunodeficiency virus 1, HXB2, HEK293, 48 h
[10] = target: T1, C-X-C chemokine receptor type 4 (Homo sapiens, UniProt P61073); settings: MOLT-4; 1000 nM
Description: Inhibition of Mab 12G5 binding to CXCR4 expressed in human MOLT4 cells at 1000 nM measured post drug washout by FACS analysis

[11] = system: Human immunodeficiency virus 1; experiment: Antiviral activity against T20-resistant HIV1 NL4-3 infected in HEK293 cells assessed as inhibition of viral replication after 2 days; format: functional, organism-based; settings: Human immunodeficiency virus 1, NL4-3, HEK293, 48 h
[12] = system: C-X-C chemokine receptor type 4 (Homo sapiens), P61073 [V280A]; experiment: Inhibition of Mab 12G5 binding to CXCR4 V280A mutant expressed in HEK293 cells; format: cell-based
[13] = target: T1, C-X-C chemokine receptor type 4; experiment: Displacement of [125I]SDF-1alpha form CXCR4 expressed in CHO cells at 0.1 to 1000 nmol/L by scintillation counting; format: cell-based
[14] = system: Human immunodeficiency virus 1; experiment: Antiviral activity against HIV1 NL4-3 infected in HEK293 cells assessed as inhibition of viral replication after 2 days; format: functional, organism-based; settings: Human immunodeficiency virus 1, NL4-3, HEK293, 48 h
[15] = system: C-X-C chemokine receptor type 4 (Homo sapiens), P61073 [V112A]; experiment: Inhibition of Mab 12G5 binding to CXCR4 V112A mutant expressed in HEK293 cells; format: cell-based
[16] = system: Human immunodeficiency virus 1; experiment: Antiviral activity against HIV1 HXB2 infected in HEK293 cells assessed as inhibition of viral replication after 2 days; format: functional, organism-based; settings: Human immunodeficiency virus 1, HXB2, HEK293, 48 h
[17] = target: T1, C-X-C chemokine receptor type 4; settings: MOLT-4; 1000 nM; remark: listed apart in the source
Description: Inhibition of Mab 12G5 binding to CXCR4 expressed in human MOLT4 cells at 1000 nM by FACS analysis

[18] = system: C-X-C chemokine receptor type 4 (Homo sapiens), P61073 [D181A]; experiment: Inhibition of Mab 12G5 binding to CXCR4 D181A mutant expressed in HEK293 cells; format: cell-based
[19] = system: C-X-C chemokine receptor type 4 (Homo sapiens), P61073 [H281A]; experiment: Inhibition of Mab 12G5 binding to CXCR4 H281A mutant expressed in HEK293 cells; format: cell-based
[20] = system: Human immunodeficiency virus 1; experiment: Antiviral activity against NRTI-resistant HIV1 HXB2 infected in HEK293 cells assessed as inhibition of viral replication after 2 days; format: functional, organism-based; settings: Human immunodeficiency virus 1, HXB2, HEK293, 48 h
[21] = system: Human immunodeficiency virus 1; experiment: Antiviral activity against PI-resistant HIV1 HXB2 infected in HEK293 cells assessed as inhibition of viral replication after 2 days; format: functional, organism-based; settings: Human immunodeficiency virus 1, HXB2, HEK293, 48 h

T1 sequence (P61073 whole entry): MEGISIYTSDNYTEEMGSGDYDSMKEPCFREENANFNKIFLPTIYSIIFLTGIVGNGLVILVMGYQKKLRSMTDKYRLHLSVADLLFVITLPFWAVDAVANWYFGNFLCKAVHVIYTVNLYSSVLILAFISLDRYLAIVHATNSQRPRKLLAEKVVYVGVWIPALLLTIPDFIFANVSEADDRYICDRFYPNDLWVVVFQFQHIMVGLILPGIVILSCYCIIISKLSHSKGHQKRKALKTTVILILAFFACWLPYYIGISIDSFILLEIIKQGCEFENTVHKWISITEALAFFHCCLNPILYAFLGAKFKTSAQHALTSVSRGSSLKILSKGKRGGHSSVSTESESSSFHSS
Chain of C-X-C chemokine receptor type 4 (Homo sapiens), P61073 [H281A] (P61073 whole entry H281A): as the sequence (P61073 whole entry) above, with H281A counted along it
Chain of C-X-C chemokine receptor type 4 (Homo sapiens), P61073 [V280A] (P61073 whole entry V280A): as the sequence (P61073 whole entry) above, with V280A counted along it
Chain of C-X-C chemokine receptor type 4 (Homo sapiens), P61073 [D181A] (P61073 whole entry D181A): as the sequence (P61073 whole entry) above, with D181A counted along it
Chain of C-X-C chemokine receptor type 4 (Homo sapiens), P61073 [V112A] (P61073 whole entry V112A): as the sequence (P61073 whole entry) above, with V112A counted along it

Row | SMILES | EC50 [1] [nM] | EC50 [2] [nM] | EC50 [3] [nM] | EC50 [4] [nM] | EC50 [5] [nM] | EC50 [6] [nM] | EC50 [7] [nM] | further results
1 | COC[C@@H](c1ccc(C(F)(F)F)cc1)N1CCN(C2(C)CCN(C(=O)c3c(C)ncnc3C)CC2)C[C@@H]1C [VICRIVIROC] | > 1000 | > 1000 | 1.2 | > 1000 | 0.37 |  |  | 
2 | NCCCCN(Cc1nc2ccccc2[nH]1)[C@H]1CCCc2cccnc21 [MAVORIXAFOR] | 55 | 35 | > 200 | 15 | > 200 |  |  | 
3 | Cc1cn([C@H]2C[C@H](N=[N+]=[N-])[C@@H](CO)O2)c(=O)[nH]c1=O [ZIDOVUDINE] | 7.4 | 11 | 6.2 | 8 | 0.96 | 1.9 | 87000 | 
4 | c1cc(CN2CCCNCCNCCCNCC2)ccc1CN1CCCNCCNCCCNCC1 [PLERIXAFOR] | 44 | 41 | > 200 | 15 | > 200 | 38 | 32 | IC50 [8]: 5.3 nM; IC50 [9]: 7 nM; inhibition [10]: inactive; IC50 [11]: 2.3 nM; IC90 [12]: 821 nM; Activity [13]: inactive; IC50 [14]: 4.6 nM; IC90 [15]: 821 nM; IC50 [16]: 6.2 nM; inhibition [17]: Active; IC90 [18]: 796 nM; IC90 [19]: 572 nM; IC50 [20]: 9 nM; IC50 [21]: 9.2 nM
5 | CC(C)(C)NC(=O)[C@@H]1C[C@@H]2CCCC[C@@H]2CN1C[C@@H](O)[C@H](Cc1ccccc1)NC(=O)[C@H](CC(N)=O)NC(=O)c1ccc2ccccc2n1 | 9.9 | 9 | 8 | 29 | 2.6 |  |  | 
